Reference: patent US8414870B2, “Benzylidene substituted 2,4-pentanedione compounds and use thereof as stabilizers” (Sytheon, Ltd., priority 2010, dated 2013)

Legend:
[1] = Photostabilization of avobenzone in ethanol test solution under sun simulator; type: physicochemical
Method: A comparative photostabilization study was conducted comparing the photostabilization efficacy of Synoxy™ AS with Octocrylene and Oxynex® ST in the stabilization of avobenzone. Samples for evaluation were prepared as follows:
Solutions of the photosensitive material and photostabilizer in ethanol were prepared, typically at a 1:1 to 1:5 weight ratio. A base test solution of 3% Avobenzone+5% Octyl salicylate+10% Homoslate in ethanol (the “Test Solution”) was made. Four additional solutions were prepared by adding 2% Synoxyl™ AS, 4% Octocrylene, 2% Oxynex® ST, and 2% Dehydrozingerone, respectively, to four aliquots of the Test Solution.
Samples of each solution were prepared as ultra h n films between two quartz plates so as to obtain a minimum of 90% light transmission over the entire spectrum range of non absorbing chromophores. […] Each sample was then irradiated under sun simulator (754 W/m^2, 2 MED/h, UV dose from 20 to 100 Jules/cm^2) for various durations and light absorption spectra recorded for each sample at given times. The maximal absorption band λmax of each solution was determined before and after irradiation. The amount of the photosensitive materials remaining in solution after irradiation was calculated as the ratio of theft two maximal absorptions.

[2] = Peroxyl radical antioxidant capacity (ORAC); conditions: method of Ou et al. 2001
Text: (§1) The antioxidant profile of the compound of Example 1, Synoxyl™ AS, was compared to two widely used commercial antioxidants, natural tocopherol and Oxynex® ST, a proprietary stabilizer based on Diethylhexyl Syringylidene Malonate (DESM), available form EMD Chemicals, Inc., of Gibbstown, N.J., USA. Several test methods were employed.

[3] = Hydroxyl radical antioxidant capacity; conditions: method of Ou et al. 2002
Text: as §1

[4] = Peroxynitrile antioxidant capacity; conditions: method of Zhang et al. 2007
Text: as §1

[5] = Superoxide antioxidant capacity; conditions: method of Dubost et al. 2007
Text: as §1

[6] = Singlet oxygen antioxidant capacity; conditions: method of Zhang et al. 2009
Text: as §1

[7] = Stabilization of colored shampoo, fluorescent light aging; type: physicochemical; conditions: 0.4 g in 120 g shampoo, ambient temperature, 4 weeks (unmodified shampoo 21.6)
Method: The stabilizer compound according to Example 1, Synoxyl™ AS, was added to a commercial shampoo formulation in order to evaluate its ability to reduce the amount of dye fading following exposure to fluorescent lighting. The sample was prepared by dissolving 0.4 g of Synoxyl™ AS in 5 ml of ethanol and then adding the solution to 120 g of Suave® Natural Fresh Mountain Strawberry Shampoo with agitation and agitated for 15 minutes. A sample of the unmodified shampoo and the modified shampoo are then placed into 20 ml glass scintillation vials. Both sets of vials were weathered under fluorescent light aging at ambient temperature for 4 weeks. The L*a*b coordinates before and after exposure are measured using X-Rite 938 Spectra-densitometer. Color change is expressed as Delta E (ΔE) which is calculated by the formula: ΔE=[(ΔL*)^2+(Δa*)^2+(Δb*)^2]^1/2

[8] = Photostabilization of water-soluble dyes, solar simulated light; type: physicochemical; conditions: 0.05% in dye premix; solar simulated light ~40 hours (without stabilizer color lost within about 2 hours)
Method: The stabilizer compound identified as Synoxyl™ AS according to Example 1 was added to two dye premix formulations as set forth in Table 9 in order to evaluate its ability to reduce the amount of dye fading following exposure to solar simulated light. Control samples without the Synoxyl™ AS were also subjected to the same conditions.

[9] = cited from earlier work

Row | Structure (SMILES) | stabilization of photosensitive compounds [1] | Peroxyl (ORAC) [2] | Hydroxyl [3] | Peroxynitrile [4] [Trolox equivalent/gm] | Superoxide [5] | Singlet oxygen [6] | change in color, Delta E [7] | dye fading [8] | solubility in chloroform ([9]; chloroform) | solubility in ether ([9]; ether) | solubility in methylene chloride ([9]; methylene chloride)
1 | COc1cc(/C=C/C(C)=O)ccc1O [Dehydrozingerone] | fails to stabilize photosensitive compounds |  |  |  |  |  |  |  |  |  | 
2 | CCCCC(CC)COC(=O)C(=Cc1cc(OC)c(O)c(OC)c1)C(=O)OCC(CC)CCCC (stereo not shown) [Oxynex ® ST, Diethylhexyl Syringylidene Malonate] |  | 550 Trolox equivalent/gm | 0 Trolox equivalent/gm | 0 | 0 Trolox equivalent/gm | 4,532 Trolox equivalent/gm |  |  |  |  | 
3 | COc1cc(C=C(C(C)=O)C(C)=O)ccc1O [Synoxyl ™ AS, 3-(4-Hydroxy, 3-methoxybenzylidene)-2,4-pentanedione] |  | 14,363 Trolox equivalent/gm | 47,180 Trolox equivalent/gm | 9 | 1,042 Trolox equivalent/gm | 13,283 Trolox equivalent/gm | 12.3 | did not fade |  |  | 
4 | CC1=C(/C=C/C(C)=C/C=C/C(C)=C/C(=O)O)C(C)(C)CCC1 [tretinoin, all-trans-retinoic acid] |  |  |  |  |  |  |  |  | slightly soluble | sparingly soluble | soluble
